According to paper PMC11125357, “Assessment of Anticancer Properties of Argemone mexicana L. and Berberine: A Comparative Study” (Plants, 2024):
Several values for one entry are separate records, joined by “and”; a condition that tells them apart may be missing. Equal entries are not always repeated. Entries after “also recorded” stand apart in the source; their conditions may differ. Marks after values point to notes of the source that are not given here.

How the values were obtained:
ABTS scavenging test = conditions: 50% decrease of ABTS radical, 734 nm, mean ± SD
Protocol: (§1) The antioxidant activity was determined by the DPPH, ABTS radical scavenging, and FRAP (Ferric Reducing Antioxidant Power) methods. In the DPPH and ABTS assays, Vitamin C served as the positive control. In all treatment evaluations, the concentrations ranged from 15.63, 31.25, 62.50, […], 250, 500, and 1000 µg/mL.
The antioxidant activity was determined using the ABTS radical scavenging method, where the antioxidant activity (free radical scavenging capacity) was quantified as IC50 in µg/mL. […] The ABTS radical scavenging assay was conducted in 96-well plastic microplates (Corning®), and the percentage inhibition of ABTS at 734 nm was calculated using Formula (8) as follows:(8) ABTS scavenging %=Abs734nm Control−Abs734 Sample/Abs734nm Control×100

DPPH scavenging test = conditions: 50% decrease of DPPH, 517 nm, mean ± SD
Protocol: as §1
The antioxidant activity was assessed using the DPPH radical assay, where the antioxidant activity (free radical scavenging capacity) was quantified as IC50 in µg/mL. […] The DPPH radical scavenging assay was conducted in a 96-well flat-bottom plastic microplate (Corning®). The percentage inhibition of DPPH at 517 nm was determined using a UV/VIS spectrophotometer and calculated using Formula (7) as follows:(7) DPPH scavenging %=Abs517 Control−Abs517 Sample/Abs517 Control×100

[1] = system: murine lymphoma (L5178Y-R) cells; test: MTT cell viability assay in L5178Y-R cells; format: cell-based; conditions: Mus musculus, L5178, 72 h of incubation, mean ± SD, read-out: IC50 (µg/mL) in Cells, L5178 Y-R
Protocol: (§2) The HEP-G2 cancer cell line and the normal VERO cell line were cultured in DMEM supplemented with 10% FBS, 2% NaHCO3, and HEPES. All tests performed with these cells were carried out in 96-well flat-bottom plastic microplates (Corning® Labware and Equipment, Oneonta, NY, USA) due to the adherent nature of these cells. L5178Y-R cells and PBMC were maintained in RPMI-1640 culture medium supplemented with 10% FBS and 1% antibiotic/antimycotic solution. All the tests performed with these cells were carried out in 96-well curved-bottom plastic microplates (Corning®) because these cells are non-adherent.
(§3) Prior to the application of the treatments, the cells were incubated at 37 °C in a humidified incubator (Sanyo MCO-19AIC CO2 Incubator, Sanyo Electric Co., Ltd., Gunma-ken, Japan) with 5% CO2 for 24 h for adaptation. The cell viability was determined by MTT assay; MTT color intensity was directly associated with the number of living cells after 72 h of incubation. Mitochondrial enzymes, specifically succinate dehydrogenase, reduce MTT tetrazolium salt to form formazan; this reaction produces a purple–blue product that can be measured using spectrophotometry since the in vitro cell viability can be tested using the MTT colorimetric assay.

[2] = system: PBMC (human peripheral blood mononuclear) cells; test: MTT cell viability assay in PBMC; format: cell-based; conditions: 72 h of incubation, mean ± SD
Protocol: as §2
as §3, with “assay. Therefore, we decided to perform an MTT assay to correlate mitochondrial activity with viability. […]” for “assay.”

[3] = system: VERO (monkey kidney epithelial) non-tumoral cells; test: MTT cell viability assay in VERO cells; format: cell-based, African green monkey; conditions: Primates, 72 h of incubation, mean ± SD
Protocol: as §2
as §3, with “assay. Therefore, we decided to perform an MTT assay to correlate mitochondrial activity with viability. […]” for “assay.”

[4] = system: HEP-G2 (human hepatocellular carcinoma) cells; test: MTT cell viability assay in HEP-G2 cells; format: cell-based; conditions: HepG2, 72 h of incubation, mean ± SD
Protocol: as §2, §3

Artemia salina nauplii = test: Lethality in Artemia salina; format: in vivo; conditions: 24 h of exposure, mean ± SD
Protocol: Artificial seawater was prepared using 20 g of sea salt and 6 mg of brewer’s yeast dissolved in 500 mL of distilled H2O (pH 7.8). Prior to the assay, the artificial seawater was conditioned by supplying air with an aquarium pump for 24 h. For the hatching of A. salina nauplii, a rectangular glass container (17 × 14 × 7 cm) was adapted, with a dark section where the cysts were incubated and an illuminated area that allows only hatched nauplii to be obtained by means of phototropism. After an incubation period of 48 h under room temperature conditions of 25 ± 2.0 °C (aeration and constant light), the test was carried out using 96-well transparent plastic microplates with a concave bottom (Corning®), in which 20 nauplii and different concentrations of the treatments (10, 100, 200, 400, 600, 800, 1000, and 2000 µg/mL) were deposited in a final volume of 200 µL per well [46]. […] Counting of live and dead larvae in each well of the microplate was performed with the use of a stereoscope microscope. […] A. salina nauplii viability was determined by Formula (6) as follows:(6) A. salina Viability %= Survival Treatment Count/ Survival Control Count×100

Hemolytic test = format: cell-based; conditions: human red blood cells (erythrocytes), pH 7.2; concentration causing 50% hemolysis of human red blood cells, mean ± SD
Protocol: The hemolytic activity was assessed using the hemolysis test. Treatments evaluated were prepared in PBS (pH 7.2 ± 0.2) in concentrations ranging from 10, 100, 200, 400, 600, 800, 1000, and 2000 µg/mL; the percent (%) of hemolysis was determined by measuring the Abs at 540 nm for each treatment.

[5] = system: human erythrocytes, AAPH-induced hemolysis; test: Anti-hemolytic test by the AAPH assay; format: cell-based; conditions: Erythrocyte; protection against AAPH radical (150 mM) in human erythrocytes, mean ± SD
Protocol: The AAPH inhibition test, as previously reported, was used to determine the anti-hemolytic activity. Hemolysis was induced by the AAPH radical (150 mM, prepared in PBS) as a positive control. The concentrations of the treatments were the same as in the hemolysis assay plus the AAPH.

[6] = system: murine macrophages (J774A.1 cell line); test: Nitric oxide production (Griess reagent); format: cell-based
Protocol: The macrophage cultures were incubated in triplicate in 25 cm^2 tissue culture flasks (Corning Glass Works, Corning®, Oneonta, NY, USA) in a total volume of 7 mL of RPMI-1640 culture medium supplemented with 10% FBS and 1% antibiotic/antimycotic solution and maintained at 37 °C in 5% CO2. A concentration of 200 ng/mL of E. coli O26:B6 LPS served as an inflammatory-inducing agent to stimulate NO production. NO production was assessed by measuring nitrite accumulation in the supernatant using Griess reagent. A standard curve was generated using NaNO2 (1 M) to interpret the test results.

Row | SMILES | ABTS IC50 (ABTS scavenging test) | DPPH IC50 (DPPH scavenging test) | IC50 [1] [µg/mL] | IC50 [2] [µg/mL] | IC50 [3] [µg/mL] | IC50 [4] [µg/mL] | A. salina LD50 (Artemia salina nauplii) | IC50 (Hemolytic test) [µg/mL] | IC50 [5] [µg/mL] | activity in response to NO production ([6]; 0.98 to 500 µg/mL) | NO production in macrophages compared to LPS ([6]; 0.5 h, 0.00–500 µg/mL) | NO production in macrophages compared to LPS ([6]; 4 h, 0.00–31.25 µg/mL) | NO production in macrophages compared to LPS ([6]; 4 h, 62.50–250 µg/mL) | NO production in macrophages compared to LPS ([6]; 4 h, 500–1000 µg/mL) | NO production in macrophages compared to LPS ([6]; 24 h, 0.00–500 µg/mL) | NO production in macrophages compared to LPS ([6]; BER at 1000 µg/mL, 0.5, 4 and 24 h)
1 | O=C1O[C@H]([C@@H](O)CO)C(O)=C1O [Vitamin C, ascorbic acid] | 81.76 ± 6.30 ^b µg/mL | 68.90 ± 3.11 ^b µg/mL | – | – | – | – | – | – | – | – | – | – | – | – | – | –
2 | COc1ccc2cc3[n+](cc2c1OC)CCc1cc2c(cc1-3)OCO2 [BER, 16,17-dimethoxy-5,7-dioxa-13-azoniapentacyclo [11.8.0.0^2,10.0^4,8.0^15,20]henicosa-1(13),2,4(8),9,14,16,18,20-octaene] | 40.29 ± 9.02 ^a,* µg/mL | 44.80 ± 1.22 ^a,* µg/mL | < 5 | 27.1 ± 7.16 | 908 ± 31.9 | 56.9 ± 9.45 | 178.00 µg/mL and 178.00 ± 29.70 ^b,** µg/mL | 713 ± 38 | 36.9 ± 5.49 | immunomodulatory activity | no significant increase in NO production | no increase in NO production | behaved in the same way as LPS | increase in NO production greater than that of LPS | no increase in ON production | increased NO production; also recorded: significantly greater effect on NO production compared to LPS
